Experimental data: the supplement of paper PMC10307832

Tests used:
Assay in all cases: relative viability (nuclei count vs DMSO), 5 days (fraction); higher = more cells survive
ABC-1 = tested on: ABC-1
Outline: (§1)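 Each reported value is a median over duplicate plates. It expresses relative viability: treated-well nuclei count divided by vehicle-well nuclei count. Lung cancer cell lines in 1536-well plates were dosed by pin tool a day after seeding, alone with one drug or with a fixed anchor-drug dose plus five library-drug doses (not always all listed) in √10 steps, and nuclei were counted after 5 days.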

CAL-12T = tested on: CAL-12T
Outline: as §1

ChaGo-K-1 = tested on: ChaGo-K-1
Outline: as §1

HCC-366 = tested on: HCC-366
Outline: as §1

HCC-78 = tested on: HCC-78
Outline: as §1

LC-2-ad = tested on: LC-2-ad
Outline: as §1

LOU-NH91 = tested on: LOU-NH91
Outline: as §1

LU99A = tested on: LU99A
Outline: as §1

NCI-H1395 = tested on: NCI-H1395
Outline: as §1

NCI-H1651 = tested on: NCI-H1651
Outline: as §1

NCI-H1755 = tested on: NCI-H1755
Outline: as §1

NCI-H1793 = tested on: NCI-H1793
Outline: as §1

NCI-H1944 = tested on: NCI-H1944
Outline: as §1

NCI-H2087 = tested on: NCI-H2087
Outline: as §1

NCI-H2170 = tested on: NCI-H2170
Outline: as §1

NCI-H2228 = tested on: NCI-H2228
Outline: as §1

NCI-H2405 = tested on: NCI-H2405
Outline: as §1

NCI-H3122 = tested on: NCI-H3122
Outline: as §1

NCI-H460 = tested on: NCI-H460
Outline: as §1

PC-3 [JPC-3] = tested on: PC-3 [JPC-3]
Outline: as §1

RERF-LC-KJ = tested on: RERF-LC-KJ
Outline: as §1

UMC-11 = tested on: UMC-11
Outline: as §1

Compound O=c1cc(-c2cccc3c2Sc2ccccc2S3)oc(N2CCOCC2)c1 + CC(=O)c1c(C)c2cnc(Nc3ccc(N4CCNCC4)cn3)nc2n(C2CCCC2)c1=O [Palbociclib] (partner 0.5 µM) has a relative viability (ABC-1; first compound 0.08 µM) of 1.04, a relative viability (ABC-1; first compound 0.253 µM) of 0.836 and a relative viability (ABC-1; first compound 0.8 µM) of 0.474. For the same compound, the relative viability (ABC-1; first compound 2.53 µM) was 0.767, the relative viability (ABC-1; first compound 8 µM) was 0.674 and the relative viability (CAL-12T; first compound 0.08 µM) was 0.369. For the same compound, the relative viability (CAL-12T; first compound 0.253 µM) was 0.57, the relative viability (CAL-12T; first compound 0.8 µM) was 0.498 and the relative viability (CAL-12T; first compound 2.53 µM) was 0.404. It also gave a relative viability (CAL-12T; first compound 8 µM) of 0.292, a relative viability (ChaGo-K-1; first compound 0.08 µM) of 0.942 and a relative viability (ChaGo-K-1; first compound 0.253 µM) of 1.12. The relative viability (ChaGo-K-1; first compound 0.8 µM) was 0.842, the relative viability (ChaGo-K-1; first compound 2.53 µM) was 0.899 and the relative viability (ChaGo-K-1; first compound 8 µM) was 1.09. It also gave a relative viability (HCC-366; first compound 0.08 µM) of 0.436, a relative viability (HCC-366; first compound 0.253 µM) of 0.349 and a relative viability (HCC-366; first compound 0.8 µM) of 0.487. It also gave a relative viability (HCC-366; first compound 2.53 µM) of 0.401, a relative viability (HCC-366; first compound 8 µM) of 0.51 and a relative viability (HCC-78; first compound 0.08 µM) of 0.506. The relative viability (HCC-78; first compound 0.253 µM) was 0.458, the relative viability (HCC-78; first compound 0.8 µM) was 0.427 and the relative viability (HCC-78; first compound 2.53 µM) was 0.417. For the same compound, the relative viability (HCC-78; first compound 8 µM) was 0.487, the relative viability (LC-2-ad; first compound 0.08 µM) was 0.513 and the relative viability (LC-2-ad; first compound 0.253 µM) was 0.51. For the same compound, the relative viability (LC-2-ad; first compound 0.8 µM) was 0.469, the relative viability (LC-2-ad; first compound 2.53 µM) was 0.502 and the relative viability (LC-2-ad; first compound 8 µM) was 0.425. For the same compound, the relative viability (LOU-NH91; first compound 0.08 µM) was 0.528, the relative viability (LOU-NH91; first compound 0.253 µM) was 0.518 and the relative viability (LOU-NH91; first compound 0.8 µM) was 0.543. It also gave a relative viability (LOU-NH91; first compound 2.53 µM) of 0.535, a relative viability (LOU-NH91; first compound 8 µM) of 0.571 and a relative viability (LU99A; first compound 0.08 µM) of 0.413. It also gave a relative viability (LU99A; first compound 0.253 µM) of 0.417, a relative viability (LU99A; first compound 0.8 µM) of 0.491 and a relative viability (LU99A; first compound 2.53 µM) of 0.463. The relative viability (LU99A; first compound 8 µM) was 0.449, the relative viability (NCI-H1395; first compound 0.08 µM) was 0.62 and the relative viability (NCI-H1395; first compound 0.253 µM) was 0.539. The relative viability (NCI-H1395; first compound 0.8 µM) was 0.568, the relative viability (NCI-H1395; first compound 2.53 µM) was 0.574 and the relative viability (NCI-H1395; first compound 8 µM) was 0.638. It also gave a relative viability (NCI-H1651; first compound 0.08 µM) of 0.523, a relative viability (NCI-H1651; first compound 0.253 µM) of 0.537 and a relative viability (NCI-H1651; first compound 0.8 µM) of 0.524. For the same compound, the relative viability (NCI-H1651; first compound 2.53 µM) was 0.509, the relative viability (NCI-H1651; first compound 8 µM) was 0.537 and the relative viability (NCI-H1755; first compound 0.08 µM) was 0.436. It also gave a relative viability (NCI-H1755; first compound 0.253 µM) of 0.464, a relative viability (NCI-H1755; first compound 0.8 µM) of 0.463 and a relative viability (NCI-H1755; first compound 2.53 µM) of 0.383. For the same compound, the relative viability (NCI-H1755; first compound 8 µM) was 0.409, the relative viability (NCI-H1793; first compound 0.08 µM) was 0.21 and the relative viability (NCI-H1793; first compound 0.253 µM) was 0.308. For the same compound, the relative viability (NCI-H1793; first compound 0.8 µM) was 0.311, the relative viability (NCI-H1793; first compound 2.53 µM) was 0.257 and the relative viability (NCI-H1793; first compound 8 µM) was 0.273. The relative viability (NCI-H1944; first compound 0.08 µM) was 0.313, the relative viability (NCI-H1944; first compound 0.253 µM) was 0.329 and the relative viability (NCI-H1944; first compound 0.8 µM) was 0.302. For the same compound, the relative viability (NCI-H1944; first compound 2.53 µM) was 0.335, the relative viability (NCI-H1944; first compound 8 µM) was 0.318 and the relative viability (NCI-H2087; first compound 0.08 µM) was 0.23. The relative viability (NCI-H2087; first compound 0.253 µM) was 0.234, the relative viability (NCI-H2087; first compound 0.8 µM) was 0.203 and the relative viability (NCI-H2087; first compound 2.53 µM) was 0.222. The relative viability (NCI-H2087; first compound 8 µM) was 0.201, the relative viability (NCI-H2170; first compound 0.08 µM) was 0.45 and the relative viability (NCI-H2170; first compound 0.253 µM) was 0.482. It also gave a relative viability (NCI-H2170; first compound 0.8 µM) of 0.414, a relative viability (NCI-H2170; first compound 2.53 µM) of 0.354 and a relative viability (NCI-H2170; first compound 8 µM) of 0.359. It also gave a relative viability (NCI-H2228; first compound 0.08 µM) of 0.766, a relative viability (NCI-H2228; first compound 0.253 µM) of 0.766 and a relative viability (NCI-H2228; first compound 0.8 µM) of 0.901. For the same compound, the relative viability (NCI-H2228; first compound 2.53 µM) was 0.608, the relative viability (NCI-H2228; first compound 8 µM) was 0.758 and the relative viability (NCI-H2405; first compound 0.08 µM) was 0.523. It also gave a relative viability (NCI-H2405; first compound 0.253 µM) of 0.534, a relative viability (NCI-H2405; first compound 0.8 µM) of 0.55 and a relative viability (NCI-H2405; first compound 2.53 µM) of 0.491. For the same compound, the relative viability (NCI-H2405; first compound 8 µM) was 0.503, the relative viability (NCI-H3122; first compound 0.08 µM) was 0.169 and the relative viability (NCI-H3122; first compound 0.253 µM) was 0.2. The relative viability (NCI-H3122; first compound 0.8 µM) was 0.208, the relative viability (NCI-H3122; first compound 2.53 µM) was 0.188 and the relative viability (NCI-H3122; first compound 8 µM) was 0.192. It also gave a relative viability (NCI-H460; first compound 0.08 µM) of 0.0971, a relative viability (NCI-H460; first compound 0.253 µM) of 0.159 and a relative viability (NCI-H460; first compound 0.8 µM) of 0.13. The relative viability (NCI-H460; first compound 2.53 µM) was 0.154, the relative viability (NCI-H460; first compound 8 µM) was 0.135 and the relative viability (PC-3 [JPC-3]; first compound 0.08 µM) was 0.471. For the same compound, the relative viability (PC-3 [JPC-3]; first compound 0.253 µM) was 0.54, the relative viability (PC-3 [JPC-3]; first compound 0.8 µM) was 0.559 and the relative viability (PC-3 [JPC-3]; first compound 2.53 µM) was 0.482. The relative viability (PC-3 [JPC-3]; first compound 8 µM) was 0.584, the relative viability (RERF-LC-KJ; first compound 0.08 µM) was 1.11 and the relative viability (RERF-LC-KJ; first compound 0.253 µM) was 1.32. For the same compound, the relative viability (RERF-LC-KJ; first compound 0.8 µM) was 1.08, the relative viability (RERF-LC-KJ; first compound 2.53 µM) was 1.04 and the relative viability (RERF-LC-KJ; first compound 8 µM) was 0.971. It also gave a relative viability (UMC-11; first compound 0.08 µM) of 0.338, a relative viability (UMC-11; first compound 0.253 µM) of 0.328 and a relative viability (UMC-11; first compound 0.8 µM) of 0.346. For the same compound, the relative viability (UMC-11; first compound 2.53 µM) was 0.326 and the relative viability (UMC-11; first compound 8 µM) was 0.345.
